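Assay format: 96-well plates, 48-hour exposure. GI50 marks 50% less growth. The concentration for full growth arrest is given as TGI.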
Columns and labels:
Test in all cases: NCI tumour cell line growth inhibition, 48 h
OVCAR-3 ovarian = tested on: OVCAR-3 ovarian
MCF7 breast = tested on: MCF7 breast
K-562 leukemia = tested on: K-562 leukemia
HT29 colon = tested on: HT29 colon
NCI-H226 lung = tested on: NCI-H226 lung
NCI-H460 lung = tested on: NCI-H460 lung
M14 melanoma = tested on: M14 melanoma
KM12 colon = tested on: KM12 colon
PC-3 prostate = tested on: PC-3 prostate
U251 CNS = tested on: U251 CNS
HOP-18 NSCLC = tested on: HOP-18 NSCLC
DMS 273 small cell lung = tested on: DMS 273 small cell lung
DLD-1 colon = tested on: DLD-1 colon
SN12K1 renal = tested on: SN12K1 renal
SNB-78 CNS = tested on: SNB-78 CNS
M19-MEL melanoma = tested on: M19-MEL melanoma
P388 leukemia = tested on: P388 leukemia

SMILES	TGI (OVCAR-3 ovarian) [µM]	TGI (MCF7 breast) [µM]	TGI (K-562 leukemia) [µM]	TGI (HT29 colon) [µM]	TGI (NCI-H226 lung) [µM]	TGI (NCI-H460 lung) [µM]	TGI (M14 melanoma) [µM]	TGI (KM12 colon) [µM]	TGI (PC-3 prostate) [µM]	TGI (U251 CNS) [µM]	GI50 (NCI-H226 lung) [µM]	GI50 (M14 melanoma) [µM]	GI50 (PC-3 prostate) [µM]	TGI (HOP-18 NSCLC) [µM]	TGI (DMS 273 small cell lung) [µM]	TGI (DLD-1 colon) [µM]	TGI (SN12K1 renal) [µM]	TGI (SNB-78 CNS) [µM]	TGI (M19-MEL melanoma) [µM]	TGI (P388 leukemia) [µM]
CS(C)(=O)=Nn1c(=O)n2n(c1=O)[C@H]1CC[C@@H]2C1	> 100	> 100	> 100	> 100	> 100	> 100	> 100	> 100	> 100	> 100	–	–	–	–	–	–	–	–	–	–
C=CCn1c(C)nc2cc(Nc3nc(N4CCCC4)nc4nc[nH]c34)ccc21	–	–	–	–	> 100	–	> 100	–	> 100	–	> 100	29.6	> 100	–	–	–	–	–	–	–
Cc1ccnn1CCc1ccc(Cl)cc1Cl	45.3	> 100	> 100	> 100	–	> 100	> 100	> 100	> 100	> 100	–	–	–	–	–	–	–	–	–	–
O=C1Sc2sc(=S)sc2SC1c1ccccc1 (stereo not given)	> 31.6	> 100	> 70.7	> 100	> 100	> 100	–	> 100	–	> 100	–	–	–	> 100	> 100	> 90.9	> 65.2	> 75.8	> 100	> 67.2
Cc1c2cnccc2c(C)c2c1c1ccccc1n2CCCCCCCl	> 50	> 50	> 50	> 50	> 46.7	> 50	–	> 50	–	> 50	–	–	–	> 7.93	> 50	> 50	> 50	49.8	> 50	32.6
CC1=CC2=C(C=O)C(=O)[C@](C)(O)[C@@H](O)C2=CO1	5.58	> 100	> 90.9	> 100	65.4	> 100	–	> 100	–	> 76.8	–	–	–	> 92.7	> 90.2	> 100	> 100	> 100	> 73.5	35.5
